“Also recorded” adds a separate entry of the source. Read-outs that look alike come from different tables or passages of the source. Each block holds one compound with its values, some of them ahead of it.
How the values were obtained:
[1] = molecular target: T1, OMA1 protease (OPA1 cleavage) (Homo sapiens, UniProt Q96E52); experiment: OPA1 cleavage / OMA1 activation in 293T cells by OPA1 Western blotting; format: cell-based; settings: for critical CCCP concentration (threshold-level) for L-OPA1 cleavage after preincubation with compound: 30 μM compound for 60 minutes; for OPA1 cleavage by compound alone, 100 μM: 100 μM (up to 100 μM for VI); for OPA1 cleavage with compound plus 1 μM CCCP: 60 minutes compound (30 μM MMP2/9 inhibitor IV, 300 μM temozolomide, 100 μM amoxapine), then 1 μM CCCP for 30 minutes
T1 construct: endogenous in cells; host or cells: 293T cells
T1 sequence (Q96E52 144-524): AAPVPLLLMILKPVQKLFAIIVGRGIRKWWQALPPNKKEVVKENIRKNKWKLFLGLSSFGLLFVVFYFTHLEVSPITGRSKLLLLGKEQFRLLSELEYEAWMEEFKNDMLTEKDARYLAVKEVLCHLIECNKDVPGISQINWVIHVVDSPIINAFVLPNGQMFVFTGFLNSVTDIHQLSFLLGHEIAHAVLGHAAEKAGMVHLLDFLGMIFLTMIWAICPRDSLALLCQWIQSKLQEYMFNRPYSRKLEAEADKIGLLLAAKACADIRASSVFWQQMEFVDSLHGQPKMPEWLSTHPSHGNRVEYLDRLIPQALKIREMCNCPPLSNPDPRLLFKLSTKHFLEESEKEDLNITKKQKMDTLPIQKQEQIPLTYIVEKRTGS
Protocol: FIG. 6. A: 293T cells were treated with 0 μM, 1 μM, 2 μM, 3 μM, 4 μM, or 5 μM CCCP for 30 minutes after which OPA1 was analyzed by Western blotting. […] E: OPA1 cleavage in Neuro2A cells treated with 30 μM of the indicated agents for 90 minutes (60 min preincubation plus 30 min of CCCP).
FIG. 7. Compounds of present invention can lower CCCP-levels for OMA1 activation gauged by OPA1 cleavage in Western blots. A-C: 293T cells were treated with the denoted concentrations of compound VII, IV and V for 60 minutes before CCCP was added for an additional 30 minutes. D-E: 293T cells were treated with the denoted concentrations of compound VII, IV and V for 6 hours before CCCP was added for an additional 30 minutes.
FIG. 11. A: A likely binding pose of a compound of present invention illustrates aspects of the drug-target interaction. B: 293T cells were treated with the denoted concentrations of compound for 90 minutes before cells were harvested and analyzed by OPA1 Western blotting. C: 293T cells were treated with the denoted concentrations of compound VI for 60 minutes and another 30 minutes with 1 μM CCCP before cells were harvested and analyzed by OPA1 Western blotting.
(§1) A nonlimiting example of a method of testing compounds for their efficacy to induce OPA1-cleavage and/or OMA1 activation is provided in FIG. 1, for which human 293T cells or mouse Neuro2A cells were treated with different agents and subsequently tested for OPA1-hydrolysis by Western blotting. […] OPA1 cleavage in these experiments is OMA1 dependent, because knock-down of the protease preserved L-OPA1 (FIG. 1B & 1C).
A nonlimiting example illustrates specific features of certain compounds disclosed herein and teaches how potency of such compounds can be further improved. To this end, compound were analyzed for their potential to lower threshold-levels for OPA1 cleavage and/or OMA1 activation using the methods described in Example 3. In one example, L-OPA1 was cleaved in untreated 293T cells at concentrations ≥5 μM CCCP (FIG. 6A, top panel). […] Preincubation with 30 μM MMP2 inhibitor II (CAS #869577-51-5) lowered the threshold-level even further to about 1 μM CCCP (FIG. 6C, bottom panel). The skilled artisan can recognize how (and the not-so-skilled artisan certainly appreciates that) substitutions and modifications of the thiirane-opposed end of the molecule increased potency.

[2] = molecular target: T2, OMA1 protease (OPA1 cleavage) (Mus musculus, UniProt Q9D8H7); experiment: OPA1 cleavage in Neuro2A cells by OPA1 Western blotting; format: cell-based; settings: 100 μM sorafenib; for OPA1 cleavage after 30 minutes: 5 μM CCCP, 1 μM valinomycin; for OPA1 cleavage after 3 hours: 100 μM trichostatin A
T2 construct: endogenous in cells; host or cells: Neuro2A cells
T2 sequence (Q9D8H7 140-521): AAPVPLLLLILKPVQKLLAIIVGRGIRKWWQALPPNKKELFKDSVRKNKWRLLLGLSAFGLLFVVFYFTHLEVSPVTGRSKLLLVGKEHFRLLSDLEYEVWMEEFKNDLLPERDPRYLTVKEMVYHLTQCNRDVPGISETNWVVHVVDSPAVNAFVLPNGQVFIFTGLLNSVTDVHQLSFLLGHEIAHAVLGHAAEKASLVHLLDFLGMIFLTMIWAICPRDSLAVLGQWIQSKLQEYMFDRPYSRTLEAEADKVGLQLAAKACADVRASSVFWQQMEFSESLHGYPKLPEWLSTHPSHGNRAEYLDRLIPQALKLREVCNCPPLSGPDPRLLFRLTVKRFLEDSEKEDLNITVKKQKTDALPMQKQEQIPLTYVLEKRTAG
Source text: FIG. 1. A: The YME1L1 protease regulates the OPA1 ratios under physiological conditions (a). The OMA1 protease converts all OPA1 isoforms to S-OPA1 under conditions broadly defined as stress conditions (b). […] OMA1 knock-down could prevent OPA1 hydrolyses in these experiments. C: Quantification of OMA1 protein levels in Western blots upon OMA1 knock-down (mean±S.D.; p≤0.05; n=3). D: Different chemicals and combinations of chemicals altered the OPA1 ratios in 293T cells. E: Neuro2A cells were treated with the indicated agents for 30 minutes or 3 hours, respectively.
as §1
Another example is provided in FIG. 1E, for which Neuro2A cells were treated with different reagents for 30 minutes or 3 hours prior to the assessment of OPA1 by Western blotting. Some compounds acted faster while others were slower in altering the OPA1 ratios. […] Trichostatin A had no effect even after 3 hours of treatment. […] In certain embodiments, a pharmaceutical composition comprising an effective amount of sorafenib or a derivate, a prodrug or a pharmaceutical acceptable salt thereof and an effective amount of temozolomide or a derivate, a prodrug or a pharmaceutical acceptable salt thereof is administered to a subject with cancer.

[3] = molecular target: T3, OMA1 (Homo sapiens, UniProt Q96E52); experiment: Luciferase-based cellular reporter of enzymatic OMA1 activity in 293T cells; format: cell-based; settings: 293T reporter cells; for OMA1 activation without stress-stimulus at 40 μM: overnight, no CCCP or valinomycin
T3 construct: 293T cells stably transfected with the reporter enzyme were incubated with increasing concentrations of a compound and 30 nM valinomycin; endogenous in cells; host or cells: 293T cells stably transfected with a luciferase-based reporter enzyme (only the reporter is transfected, not OMA1)
T3 sequence (Q96E52 144-524): T1 sequence (Q96E52 144-524)
Protocol: FIG. 8. 293T cells expressing a luciferase-based cellular reporter were incubated for 1 hour with increasing concentrations of the denoted compounds in cell culture media with 30 nM valinomycin before luciferase substrate was added and light emission measured. OMA1 activity decreases the light signal of the reporter in this assay. A: Vehicle only. […] C: amoxapine. D: compound VII. E: compound IV. F: compound V.
FIG. 9. 293T cells expressing a luciferase-based cellular reporter were incubated overnight with increasing concentrations of the denoted compounds. Luciferase substrate was added the next day and light emission measured. A: Vehicle only. […] C: amoxapine. D: compound VII. E: compound IV. F: compound V.
The following non-limiting examples illustrate some aspects of the mechanism of action of the compounds disclosed herein. An alternative method of measuring enzymatic OMA1 activity makes use of a luciferase-based cellular reporter, which can be transiently or stably expressed in eukaryotic cells. In this assay, OMA1 cleaves the reporter enzyme upon activation and thereby obliterates the luciferase signal. 293T cells stably transfected with the reporter enzyme were incubated with increasing concentrations of a compound and 30 nM valinomycin. Valinomycin is known in the art to induce OPA1 cleavage (see, for example, Head B., et al. “Inducible proteolytic inactivation of OPA1 mediated by the OMA1 protease in mammalian cells.” J Cell Biol. 2009; 187(7):959-66, as well as FIG. 1E). […] This specific example illustrates how compounds of present invention can activate OMA1 under conditions that would otherwise not lead to OMA1 activation. This example also provides an independent validation of the results obtained by Western blotting.
Incubation time is a variable of OMA1 activation for certain compounds (see, for example, sorafenib in FIG. 1E). To investigate whether compounds of present disclosure would activate OMA1 in the absence of a stress-stimulus such as CCCP or valinomycin, reporter cells were incubated with increasing compound concentrations overnight (FIG. 9). […]

[4] = system: mitochondrial membrane potential Δψ
Protocol: (§2) The mitochondrial inner membrane potential Δψ was measured with a cellular TMRE-assay, in which a reduction of Δψ results in a reduced TMRE signal (see insert in A). […] A: Vehicle only. […] D: compound VII. E: compound IV. F: compound V.
(§3) It is well established in the art that CCCP can lower the mitochondrial membrane potential Δψ. […] 293T cells were cultured overnight with different compound concentrations after which TMRE fluorescence was measured with a fluorescence plate-reader (FIG. 10).

[5] = system: mitochondrial membrane potential Δψ; experiment: TMRE live-cell assay in 293T cells; settings: for impact on mitochondrial membrane potential Δψ (TMRE signal): overnight (18 hours), different compound concentrations
Protocol: as §2, §3

[6] = 293T cells, then CCCP for another 30 minutes
[7] = cells treated 60 minutes with compound, then CCCP for another 30 minutes
[8] = 293T cells, 90 minutes, absence of CCCP
[9] = 293T cells, pre-incubation of 6 hours before CCCP for an additional 30 minutes

SMILES: CC(C)[C@@H]1NC(=O)[C@H](C)OC(=O)[C@@H](C(C)C)NC(=O)[C@@H](C(C)C)OC(=O)[C@H](C(C)C)NC(=O)[C@H](C)OC(=O)[C@@H](C(C)C)NC(=O)[C@@H](C(C)C)OC(=O)[C@H](C(C)C)NC(=O)[C@H](C)OC(=O)[C@@H](C(C)C)NC(=O)[C@@H](C(C)C)OC1=O [valinomycin]
OPA1 cleavage after 30 minutes [2]: enough to induce OPA1 cleavage
effect of 30 nM valinomycin alone on reporter signal ([3]; 1 hour, 30 nM valinomycin, vehicle only): only little effects

SMILES: O=S(=O)(CC1CS1)c1ccc(Oc2ccccc2)cc1 (stereo not drawn) [MMP2/9 inhibitor IV]
critical CCCP concentration (threshold-level) for L-OPA1 cleavage after preincubation with compound [1, 6]: about 2 μM
OPA1 cleavage by compound alone, 30 μM ([1]; 293T cells, 30 μM, 90 minutes, absence of CCCP): did not induce OPA1 cleavage
OPA1 cleavage by compound alone, 100 μM [1, 8]: no effects on L-OPA1
OPA1 cleavage with compound plus 1 μM CCCP ([1]; 293T cells): led to OPA1 cleavage
impact on mitochondrial membrane potential Δψ (TMRE signal) [4]: only little impact on Δψ

SMILES: O=C1Nc2ccccc2Oc2ccc(S(=O)(=O)CC3CS3)cc21 (stereo not drawn) [Compound VI]
conversion of L-OPA1 isoforms at 300 nM ([1]; 293T cells, 300 nM compound, presence of 1 μM CCCP): fully convert all L-OPA1 isoforms
OPA1 cleavage by compound alone, 100 μM [1, 8]: did not induce OPA1 cleavage
effective dose (OPA1 cleavage) ([1]; 293T cells, 60 minutes compound, another 30 minutes with 1 μM CCCP): 300 nM
effective dose better than compound IV ([1]; 293T cells, with CCCP): 10 times
more potent in inducing OPA1 hydrolysis than MMP2/9 inhibitor IV or amoxapine ([1]; 293T cells, with CCCP): 100 times

SMILES: N#CC(C#N)=NNc1cccc(Cl)c1 [CCCP]
OPA1 cleavage by 1 μM CCCP alone ([1]; 293T cells, 1 μM CCCP, 30 minutes): did not induce OPA1 cleavage
L-OPA1 cleavage by 10 μM CCCP ([1]; 293T cells, 10 μM CCCP, 30 minutes): resulted in L-OPA1 cleavage
CCCP concentration at which L-OPA1 was cleaved ([1]; untreated 293T cells, CCCP 30 minutes): ≥ 5 µM
OPA1 cleavage after 30 minutes [2]: enough to induce OPA1 cleavage
TMRE signal with 0.6 μM CCCP ([5]; 0.6 μM CCCP): significantly reduced the TMRE signal

SMILES: O=C1Nc2ccccc2Oc2ccc(S(=O)(=O)CC3CO3)cc21 (stereo not drawn) [Compound V]
efficacy in OPA1 cleavage in the presence of CCCP ([1]; 293T cells, 60 minutes compound, then CCCP 30 minutes): some efficacy; also recorded: overall little activity
OPA1 cleavage at the tested concentrations after extended pre-incubation [1, 9]: did result in OPA1 cleavage
potency (effective dose) after extended pre-incubation [1, 9]: about 1 μM
impact on mitochondrial membrane potential Δψ (TMRE signal) [5]: only little impact on Δψ

The next lines start with results.

critical CCCP concentration (threshold-level) for L-OPA1 cleavage after preincubation with compound [1, 6]: about 1 μM
effective dose (OPA1 cleavage) [1, 7]: about 30 μM
SMILES: CS(=O)(=O)Nc1ccc(Oc2ccc(S(=O)(=O)CC3CO3)cc2)cc1 (stereo not drawn) [MMP2 inhibitor II]

OPA1 cleavage after 30 minutes [2]: only little effect
OPA1 cleavage after 3 hours [2]: L-OPA1 was completely converted
SMILES: CNC(=O)c1cc(Oc2ccc(NC(=O)Nc3ccc(Cl)c(C(F)(F)F)c3)cc2)ccn1 [sorafenib]

impact on mitochondrial membrane potential Δψ (TMRE signal) [5]: only little impact on Δψ
SMILES: C=CCSc1ccc2c(c1)C(=O)Nc1ccccc1O2 [IV, 2-(allylthio)dibenzo[b,f][1,4]oxazepin-11(10H)-one]

OPA1 cleavage with compound plus 1 μM CCCP ([1]; 293T cells): OPA1 cleavage was observed
OMA1 activation without stress-stimulus at 40 μM [3]: OMA1 activation was noted
impact on mitochondrial membrane potential Δψ (TMRE signal) [5]: only little impact on Δψ
SMILES: Clc1ccc2c(c1)C(N1CCNCC1)=Nc1ccccc1O2 [amoxapine]
OPA1 cleavage by compound alone, 100 μM [1, 8]: no effect on OPA1 cleavage; also recorded: no perceptible effects

OPA1 cleavage after 3 hours [2]: no effect
SMILES: CC(/C=C/C(=O)NO)=C\[C@@H](C)C(=O)c1ccc(N(C)C)cc1 [Trichostatin A, trichostatin A]

OPA1 cleavage at the tested concentrations after extended pre-incubation [1, 9]: did result in OPA1 cleavage
effective dose (OPA1 cleavage) [1, 7]: about 10 μM
increase of potency compared to amoxapine ([1]; from effective doses in 293T cells): about 3 fold
OMA1 activation without stress-stimulus at 40 μM [3]: OMA1 activation was noted
impact on mitochondrial membrane potential Δψ (TMRE signal) [5]: only little impact on Δψ
SMILES: C=CCSc1ccc2c(c1)C(N1CCNCC1)=Nc1ccccc1O2 [VII]

Source: patent publication US12466819B2, “Tricyclic compounds with OMA1/OPA1 modulatory properties” (712 North Inc., priority 2019, dated 2025)
